Article PMC9946934, “Reconstitution of human pyroptotic cell death in Saccharomyces cerevisiae” (Scientific Reports, 2023)

Key:
Type in all cases: cell-based, Saccharomyces cerevisiae
caspase-3 = target: T1, caspase-3 (Homo sapiens, UniProt P42574); assay: growth rescue of S. cerevisiae expressing active human caspase-3
T1 construct: gene CASP3; active caspase-3 fused to β-galactosidase (caspase-3–LacZ)
T1 sequence (P42574 29-175): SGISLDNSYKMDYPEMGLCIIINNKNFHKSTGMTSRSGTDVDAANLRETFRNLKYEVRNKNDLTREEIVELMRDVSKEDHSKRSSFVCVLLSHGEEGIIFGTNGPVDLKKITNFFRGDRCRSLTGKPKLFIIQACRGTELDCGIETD
T1 sequence (P42574 176-277): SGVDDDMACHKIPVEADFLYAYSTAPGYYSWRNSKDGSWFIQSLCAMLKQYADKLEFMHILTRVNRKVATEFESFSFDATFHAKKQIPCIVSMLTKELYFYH

caspase-1 = target: T2, caspase-1 (Homo sapiens, UniProt P29466); assay: growth rescue of S. cerevisiae expressing human caspase-1
T2 construct: gene CASP1
T2 sequence (P29466 1-404): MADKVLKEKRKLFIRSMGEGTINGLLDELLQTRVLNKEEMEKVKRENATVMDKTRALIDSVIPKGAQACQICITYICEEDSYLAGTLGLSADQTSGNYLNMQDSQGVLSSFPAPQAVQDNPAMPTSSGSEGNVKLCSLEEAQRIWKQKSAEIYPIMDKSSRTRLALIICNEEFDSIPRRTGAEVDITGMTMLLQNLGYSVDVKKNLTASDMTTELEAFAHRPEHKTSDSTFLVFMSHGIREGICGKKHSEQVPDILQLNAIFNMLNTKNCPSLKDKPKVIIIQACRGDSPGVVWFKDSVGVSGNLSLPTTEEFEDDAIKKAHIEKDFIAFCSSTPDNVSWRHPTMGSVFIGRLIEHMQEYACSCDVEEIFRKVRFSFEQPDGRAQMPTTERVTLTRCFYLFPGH

caspase-8 = target: T3, caspase-8 (Homo sapiens, UniProt Q14790); assay: growth rescue of S. cerevisiae expressing human caspase-8
T3 construct: gene CASP8
From the text: growth rescue of S. cerevisiae expressing human caspase-8 on caspase-8 | higher concentrations of QVD were needed to restore the growth rate of yeast expressing caspase-8

T3 sequence (Q14790 whole entry): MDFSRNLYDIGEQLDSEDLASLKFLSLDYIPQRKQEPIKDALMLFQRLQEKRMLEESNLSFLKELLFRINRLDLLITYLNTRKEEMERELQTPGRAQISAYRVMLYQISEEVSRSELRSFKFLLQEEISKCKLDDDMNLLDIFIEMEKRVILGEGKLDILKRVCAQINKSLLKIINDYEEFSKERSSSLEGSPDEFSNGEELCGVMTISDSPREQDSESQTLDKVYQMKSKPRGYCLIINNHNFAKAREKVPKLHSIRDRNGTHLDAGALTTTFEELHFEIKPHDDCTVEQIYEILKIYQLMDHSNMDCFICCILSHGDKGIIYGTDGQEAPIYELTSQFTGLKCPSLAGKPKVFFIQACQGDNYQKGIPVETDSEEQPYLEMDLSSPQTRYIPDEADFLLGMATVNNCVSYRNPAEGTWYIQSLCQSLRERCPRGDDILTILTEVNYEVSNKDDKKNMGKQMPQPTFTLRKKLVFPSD

`CC(C)[C@H](NC(=O)c1ccc2ccccc2n1)C(=O)N[C@@H](CC(=O)O)C(=O)COc1c(F)cccc1F` [QVD, Q-VD-OPh] gave an IC50 (caspase-3) of 1.7 µM, an IC50 (caspase-1) of 21.4 µM and an IC50 (caspase-8) of 30 µM.
